According to patent US6541493B1, “Crystals of 5-[{6-(2-fluorobenzyl)oxy-2-naphthyl}methyl]-2,4-thiazolidinedione” (Mitsubishi Chemical Corporation, priority 1999, dated 2003):
“Also recorded” adds a separate entry of the source.

Assays:
Type in all cases: physicochemical
[1] = Stability to physical impact (grinding in agate mortar, powder X-ray diffraction); conditions: 1 g ground for 1 minute in agate mortar, powder X-ray diffraction pattern compared with before grinding
Experimental: A sample (1 g) of each of the type A-D crystals was placed in an agate mortar, and ground for 1 minute, and powder X-ray diffraction pattern of the ground sample was determined. The pattern was compared with that of the crystal form before the grinding to examine a change of the crystal form.

[2] = Thermal stability (oven heating, powder X-ray diffraction); conditions: about 50 mg in glass bottle, under atmosphere in oven at 70° C. for 24 hours
Experimental: A sample (about 50 mg) of each of the crystals of types A, C and D was placed in a transparent glass bottle, and heated under atmosphere in an oven at 70° C. for 24 hours. After cooling, powder X-ray diffraction pattern was measured to examine a change of the crystal form.

[3] = Stability in a solvent (heated with stirring in suspension); conditions: heated with stirring in suspension in water, methylene chloride, hexane, ethyl acetate-hexane and ethanol
Description: The type A crystals were heated with stirring in a state of suspension in a variety of solvents including water, methylene chloride, hexane, ethyl acetate-hexane and ethanol, and then examined the absence or presence of a change of the crystal form after the treatment.

In the case of `O=C1NC(=O)C(Cc2ccc3cc(OCc4ccccc4F)ccc3c2)S1` (centres unmarked) [Crystal form A, 5-[{6-(2-fluorobenzyl)oxy-2-naphthyl}methyl]-2,4-thiazolidinedione], the Change after grinding ([1]; listed as A) is reported as “No change”, the “Change of the crystal form after heating” value ([2]; listed as type A) is reported as “no change” and the “Change of the crystal form after treatment in solvents” value [3] is reported as “no change”.

For `O=C1NC(=O)C(Cc2ccc3cc(OCc4ccccc4F)ccc3c2)S1` (centres unmarked) [Crystal form B, 5-[{6-(2-fluorobenzyl)oxy-2-naphthyl}methyl]-2,4-thiazolidinedione], the Change after grinding ([1]; listed as B) was “Partial changes; also recorded: Partially changed”.

With `O=C1NC(=O)C(Cc2ccc3cc(OCc4ccccc4F)ccc3c2)S1` (centres unmarked) [Crystal form C, 5-[{6-(2-fluorobenzyl)oxy-2-naphthyl}methyl]-2,4-thiazolidinedione] the Change after grinding ([1]; listed as C) was “No change” and the “Change of the crystal form after heating” value ([2]; listed as type C) was “partial change”.

For `O=C1NC(=O)C(Cc2ccc3cc(OCc4ccccc4F)ccc3c2)S1` (centres unmarked) [Crystal form D, 5-[{6-(2-fluorobenzyl)oxy-2-naphthyl}methyl]-2,4-thiazolidinedione], the Change after grinding ([1]; listed as D) was “Partial changes; also recorded: Partially changed” and the “Change of the crystal form after heating” value [2] was “no change”.
